In patent US20130005811A1, “ANTIMICROBIAL TREATMENT FOR SEEDS AND SPROUTS” (priority 2010, published 2013):

How the values were obtained:
watermelon seeds = assay: Germination of treated watermelon seeds; settings: 0.05% SDS alone (negative control)
[1] = system: Clavibacter michiganenses subsp. michiganenses (CMM); settings: 0.5% levulinic acid, 30° C., 30 hr, OD 600 nm
Experimental: (§1) The effect of levulinic acid on in vitro growth of a range of phytobacteria was determined using a Microbiology Reader BioscreenC (Transgalactic Ltd.; Helsinki, Finland) according to manufacturer's instructions. Briefly, inoculum was generated by transferring one colony of each bacterium from a three-day-old nutrient agar culture (Difco) to 5 ml of nutrient broth. Broth cultures were incubated overnight at 30° C. with continuous agitation and cells from 1 ml of broth were harvested by centrifugation (16,200×g) for 3 min and adjusted to about 3.0×10^8 CFU/ml (ODA600 nm=0.3) spectrophotometrically (Spectronic 20, Bausch and Lomb, Rochester, N.Y.). Cell suspensions were ten-fold serially diluted to desired concentrations, and 10 μl of each suspension was transferred to a single well in a honeycomb plate (Oy Growth Curves AB Ltd., Helsinki, Finland) containing 190 μl of nutrient broth amended with 3%, 1% or 0.5% levulinic acid. This yielded a starting suspension of about 1.5×10^4 CFU/ml. The microplate containing ten replicates of each bacterium×levulinic acid concentration treatment was incubated at 30° C. with continuous agitation in a BioscreenC MBR incubator/reader. Optical density measurements of each well were taken at a wavelength of 600 nm at 30 min intervals for 30 hr.

[2] = system: Xanthomonas campestris pv. campestris (XCC)
Experimental: (§2) The ability of combinations of levulinic acid and SDS to kill a range of plant pathogenic bacteria in vitro was tested. Nutrient broth liquid cultures were supplemented with 3%, 1%, or 0.5% levulinic acid. A range of gram-negative plant pathogenic bacteria was screened, including Acidovorax avenae subsp. citrulli, Erwinia (Pectobacterium) carotovora subsp. carotovora, Xanthomonas campestris pv. campestris, Xanthomonas axonopodis pv. vesicatoria and Pantoea ananatis subsp. ananatis. […] Each bacterium was evaluated 10 times and the experiment was repeated.
as §1

[3] = system: Acidovorax avenae subsp. citrulli (Aac)
Experimental: as §2, §1

Pantoea ananatis (PNA) = system: Pantoea ananatis (PNA)
Experimental: as §2, §1

[4] = system: Erwinia carotovora subsp. carotovora (ECC)
Experimental: as §2, §1

[5] = system: Xanthomonas campestris pv. vesicatoria (XCV)
Experimental: as §2, §1

[6] = 0.5% levulinic acid, 30° C., 30 hr, OD 600 nm

SMILES | Germination percentage (watermelon seeds) | In vitro growth in nutrient broth [1] | Kind of action (broth cultures plated after incubation) [2] | Number of viable cells in the liquid broth ([2]; 0.5% levulinic acid) | In vitro growth in nutrient broth [2, 6] | Kind of action (broth cultures plated after incubation) [3] | Number of viable cells in the liquid broth ([3]; 0.5% levulinic acid) | In vitro growth in nutrient broth [3, 6] | Kind of action (broth cultures plated after incubation) (Pantoea ananatis (PNA)) | Number of viable cells in the liquid broth (Pantoea ananatis (PNA); 0.5% levulinic acid) | In vitro growth in nutrient broth (Pantoea ananatis (PNA); [6]) | Kind of action (broth cultures plated after incubation) [4] | Number of viable cells in the liquid broth ([4]; 0.5% levulinic acid) | In vitro growth in nutrient broth [4, 6] | Kind of action (broth cultures plated after incubation) [5] | Number of viable cells in the liquid broth ([5]; 0.5% levulinic acid) | In vitro growth in nutrient broth [5, 6]
CCCCCCCCCCCCOS(=O)(=O)[O-].[Na+] [0.05% SDS, sodium dodecyl sulfate] | 89.25% | – | – | – | – | – | – | – | – | – | – | – | – | – | – | – | –
CC(=O)CCC(=O)O [levulinic acid, Levulinic acid] | – | prevented the growth | bactericidal rather than bacteristatic | killed the pathogens | prevented the growth | bactericidal rather than bacteristatic | killed the pathogens | prevented the growth | bactericidal rather than bacteristatic | killed the pathogens | prevented the growth | bactericidal rather than bacteristatic | killed the pathogens | prevented the growth | bactericidal rather than bacteristatic | killed the pathogens | prevented the growth
